Reference: ChEMBL document CHEMBL4138292, “Metabolomics-Guided Discovery of Microginin Peptides from Cultures of the Cyanobacterium Microcystis aeruginosa” (J Nat Prod, 2018)

Each molecule was assayed against Angiotensin-converting enzyme (Homo sapiens, UniProt P12821) (assay: Inhibition of ACE (unknown origin) using hippuryl-L-histidyl-L-leucine as substrate preincubated with substrate for 30 mins followed by enzyme addition measured after 30 mins by LC/MS analysis).
Angiotensin-converting enzyme, sequence (P12821 whole entry): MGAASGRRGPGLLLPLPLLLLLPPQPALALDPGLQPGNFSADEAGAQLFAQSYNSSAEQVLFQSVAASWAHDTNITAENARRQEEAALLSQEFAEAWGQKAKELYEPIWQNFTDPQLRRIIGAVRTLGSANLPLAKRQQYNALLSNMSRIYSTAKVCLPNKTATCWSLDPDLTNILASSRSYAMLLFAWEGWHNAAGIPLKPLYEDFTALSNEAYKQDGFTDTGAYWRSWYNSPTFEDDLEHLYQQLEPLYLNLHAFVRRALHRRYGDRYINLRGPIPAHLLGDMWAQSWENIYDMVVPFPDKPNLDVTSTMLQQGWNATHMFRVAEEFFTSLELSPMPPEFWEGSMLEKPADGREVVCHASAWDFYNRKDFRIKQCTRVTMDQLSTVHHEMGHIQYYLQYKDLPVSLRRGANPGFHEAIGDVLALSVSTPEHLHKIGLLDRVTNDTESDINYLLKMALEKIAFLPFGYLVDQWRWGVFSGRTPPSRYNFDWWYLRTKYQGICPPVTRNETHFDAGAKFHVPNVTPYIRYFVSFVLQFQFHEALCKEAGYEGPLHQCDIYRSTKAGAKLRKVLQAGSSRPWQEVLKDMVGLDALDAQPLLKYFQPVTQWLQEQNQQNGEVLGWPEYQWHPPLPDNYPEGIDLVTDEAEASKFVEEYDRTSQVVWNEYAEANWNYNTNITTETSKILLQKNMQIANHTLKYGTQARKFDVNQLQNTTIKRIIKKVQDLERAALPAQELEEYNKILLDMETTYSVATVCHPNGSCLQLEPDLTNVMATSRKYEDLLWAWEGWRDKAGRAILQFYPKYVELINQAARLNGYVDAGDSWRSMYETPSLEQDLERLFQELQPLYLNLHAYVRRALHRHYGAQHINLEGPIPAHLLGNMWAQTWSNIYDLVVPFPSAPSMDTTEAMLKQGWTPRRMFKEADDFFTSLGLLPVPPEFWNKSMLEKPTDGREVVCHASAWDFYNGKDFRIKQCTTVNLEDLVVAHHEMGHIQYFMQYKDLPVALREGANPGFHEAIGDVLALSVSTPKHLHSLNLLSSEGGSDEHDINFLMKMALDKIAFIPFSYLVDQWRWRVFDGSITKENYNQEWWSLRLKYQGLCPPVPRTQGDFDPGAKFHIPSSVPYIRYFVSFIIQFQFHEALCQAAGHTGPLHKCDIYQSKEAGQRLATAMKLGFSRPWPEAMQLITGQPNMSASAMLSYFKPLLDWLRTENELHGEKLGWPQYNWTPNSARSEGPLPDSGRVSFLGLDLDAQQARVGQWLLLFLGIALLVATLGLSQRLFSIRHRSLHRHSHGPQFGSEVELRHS

Row | Compound | IC50 [µM]
1 | O=C(O)CN(CCN(CC(=O)O)CC(=O)O)CC(=O)O [EDETIC ACID] | 14
2 | CCCCCCC[C@H](N)[C@H](O)C(=O)N[C@@H](C)C(=O)N[C@H](C(=O)O)C(C)C | 460
3 | CCCCCCC[C@H](N)[C@H](O)C(=O)N(C)[C@@H](CC[S+](C)[O-])C(=O)N[C@@H](Cc1ccc(O)cc1)C(=O)O (stereo partly drawn) | 31
